Measured values reported in patent publication US11633481B2, “Surfactants for use in healthcare products” (priority 2019, dated 2023).

What was measured:
Assay type in all cases: physicochemical
[1] = Critical micelle concentration and minimum surface tension by Wilhelmy plate method
Excerpt: These properties may be measured and described by various methods. One method by which surfactants may be described is by the molecule's critical micelle concentration (CMC). CMC may be defined as the concentration of a surfactant at which micelles form, and above which all additional surfactant is incorporated into micelles.
As surfactant concentration increases, surface tension decreases. Once the surface is completely overlaid with surfactant molecules, micelles begin to form. This point represents the CMC, as well as the minimum surface tension. Further addition of surfactant will not further affect the surface tension. CMC may therefore be measured by observing the change in surface tension as a function of surfactant concentration. One such method for measuring this value is the Wilhemy plate method. A Wilhelmy plate is usually a thin iridium-platinum plate attached to a balance by a wire and placed perpendicularly to the air-liquid interface. The balance is used to measure the force exerted on the plate by wetting. This value is then used to calculate the surface tension (γ) according to Equation 1: γ=F/I cos θ Equation 1: wherein I is equal to the wetted perimeter (2w+2d, in which w and d are the […], respectively) and cos θ, the contact angle between the liquid and the plate, is assumed to be 0 in the absence of an extant literature value.
(§1) Nuclear magnetic resonance (NMR) spectroscopy was performed on a Bruker 500 MHz spectrometer. The critical micelle concentration (CMC) was determined by the Wilhelmy plate method at 23° C. with a tensiometer (DCAT 11, DataPhysics Instruments GmbH) equipped with a Pt—Ir plate. Dynamic surface tension was determined with a bubble pressure tensiometer (Krüss BP100, Krüss GmbH), at 23° C. Contact angle was determined with the optical contact angle goniometer (OCA 15 Pro, DataPhysics GmbH) equipped with a digital camera.

[2] = Dynamic surface tension with bubble pressure tensiometer; conditions: 23° C.
Excerpt: Another parameter used to assess the performance of surfactants is dynamic surface tension. The dynamic surface tension is the value of the surface tension for a particular surface or interface age. In the case of liquids with added surfactants, this can differ from the equilibrium value. Immediately after a surface is produced, the surface tension is equal to that of the pure liquid. As described above, surfactants reduce surface tension; therefore, the surface tension drops until an equilibrium value is reached. The time required for equilibrium to be reached depends on the diffusion rate and the adsorption rate of the surfactant.
One method by which dynamic surface tension is measured relies upon a bubble pressure tensiometer. This device measures the maximum internal pressure of a gas bubble that is formed in a liquid by means of a capillary. The measured value corresponds to the surface tension at a certain surface age, the time from the start of the bubble formation to the occurrence of the pressure maximum. The dependence of surface tension on surface age can be measured by varying the speed at which bubbles are produced.
as §1

[3] = Contact angle (wetting) with optical contact angle goniometer; conditions: 10× CMC in water
Excerpt: Surface-active compounds may also be assessed by their wetting ability on solid substrates as measured by the contact angle. When a liquid droplet comes in contact with a solid surface in a third medium, such as air, a three-phase line forms among the liquid, the gas and the solid. The angle between the surface tension unit vector, acting at the three-phase line and tangent at the liquid droplet, and the surface is described as the contact angle. The contact angle (also known as wetting angle) is a measure of the wettability of a solid by a liquid. In the case of complete wetting, the liquid is completely spread over the solid and the contact angle is 0°. Wetting properties are typically measured for a given compound at the concentration of 1-100×CMC, however, it is not a property that is concentration-dependent therefore measurements of wetting properties can be measured at concentrations that are higher or lower.
In one method, an optical contact angle goniometer may be used to measure the contact angle. This device uses a digital camera and software to extract the contact angle by analyze the contour shape of a sessile droplet of liquid on a surface.
as §1

[4] = Solubility in water; conditions: pure water, without hydrotropes or other surfactants
[5] = substrate Polyethylene terephthalate
[6] = chloride counterion, pH=7, 23° C.

Row | Compound | critical micelle concentration (CMC) ([1]; in water, 23° C.) | plateau value of minimum surface tension ([1]; in water, 23° C.) | time to fully saturate the interface (dynamic surface tension) ([2]; freshly created air-water interface) | contact angle (CA) ([3]; substrate Nylon) [°] | contact angle (CA) [3, 5] [°] | contact angle (CA) ([3]; substrate Polyethylene) [°] | contact angle (CA) ([3]; substrate Polypropylene) [°] | contact angle (CA) ([3]; substrate Teflon) [°] | time to fully saturate a freshly created air-water interface (dynamic surface tension) [2] | contact angle (CA) ([3]; substrate Polyethylene-HD) [°] | critical micelle concentration (CMC) [1, 6] | plateau value of minimum surface tension [1, 6] | solubility in water [4]
1 | C[N+](C)(C)CCCCCC(=O)NCCC[Si](O[Si](C)(C)C)(O[Si](C)(C)C)O[Si](C)(C)C [Surfactant 3, 6-((3-(1,1,1,5,5,5-hexamethyl-3-((trimethylsilyl)oxy)trisiloxan-3-yl)propyl)amino)-N,N,N-trimethyl-6-oxohexan-1-aminium iodide] | about 1.6 mmol | around 20 mN/m | less than 500 ms | 0 | 0 | 0 | 0 | 10.5 |  |  |  |  | 
2 | C[N+](C)([O-])CCCCCC(=O)NCCC[Si](O[Si](C)(C)C)(O[Si](C)(C)C)O[Si](C)(C)C [Surfactant 4, 6-((3-(1,1,1,5,5,5-hexamethyl-3-((trimethylsilyl)oxy)trisiloxan-3-yl)propyl)amino)-N,N-dimethyl-6-oxohexan-1-amine oxide] | about 0.49 mmol | about 20 mN/m |  | 0 | 0 | 0 | 0 | 10.6 | one second or less |  |  |  | 
3 | C[N+](C)(CCCCCC(=O)NCCC[Si](O[Si](C)(C)C)(O[Si](C)(C)C)O[Si](C)(C)C)CCCCS(=O)(=O)[O-] [Surfactant 5, 4-((6-((3-(1,1,1,5,5,5-hexamethyl-3-((trimethylsilyl)oxy)trisiloxan-3-yl)propyl)amino)-6-oxohexyl)dimethylammonio)butane-1-sulfonate] | about 0.39 mmol | about 21 mN/m |  | 0 | 0 | 0 | 0 | 10.2 | one second or less | 0 |  |  | 
4 | CN(C)CCCCCC(=O)NCCC[Si](O[Si](C)(C)C)(O[Si](C)(C)C)O[Si](C)(C)C [Surfactant 2, 6-((3-(1,1,1,5,5,5-hexamethyl-3-((trimethylsilyl)oxy)trisiloxan-3-yl)propyl)amino)-N,N-dimethyl-6-oxohexan-1-aminium chloride] |  |  |  |  |  |  |  |  |  |  | about 2 mmol | about 23 mN/m | 
5 | CN(C)CCCCCC(=O)NCCC[Si](O[Si](C)(C)C)(O[Si](C)(C)C)O[Si](C)(C)C [Surfactant 1, 6-(dimethylamino)-N-(3-(1,1,1,5,5,5-hexamethyl-3-((trimethylsilyl)oxy)trisiloxan-3-yl)propyl)hexanamide] |  |  |  |  |  |  |  |  |  |  |  |  | slightly soluble
